pIC50: −log10 of the molar value.
Target: T1, human PF4 (Homo sapiens, UniProt P02776)
T1 construct: PF4 is a 70 amino acid, lysine-rich 7.8 kDa platelet-specific protein; made in house; host or cells: Escherichia coli BL21DE3 pLysS (pT7-7) and/or Drosophila S2 cells
T1 sequence (P02776 32-101): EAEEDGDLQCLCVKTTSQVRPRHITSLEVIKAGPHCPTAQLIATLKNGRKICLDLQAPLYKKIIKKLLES
Experiment: Inhibition of PF4 tetramer formation (BS3 cross-linking, SDS-PAGE)
Type: biochemical
Details: for inhibition at 1 µM: 1 μM inhibitor; for inhibition at 1 µM / inhibition at 3 µM / inhibition at 5 µM / inhibition at 10 µM: read-out: % inhibition of PF4 tetramer formation at single concentration of inhibitor; for inhibition at 3 µM: 3 μM inhibitor (column A); for inhibition at 5 µM: 5 μM inhibitor; for inhibition at 10 µM: 10 μM inhibitor (column A); for pIC50: read-out: IC50 of PF4 tetramer formation inhibition
Outline: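 Recombinant human wild-type PF4 (E. coli-expressed, heparin-purified), 10 μg/ml in PBS, incubated with compound 15 min at 37° C or 60 min at room temperature, then cross-linked with 0.2 mM BS3 for 30 min at room temperature. Reducing 12% SDS-PAGE; bands quantified as % tetramer, trimer, dimer, monomer versus compound-free control.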

Row | SMILES | inhibition at 1 µM [%] | inhibition at 3 µM [%] | inhibition at 5 µM [%] | inhibition at 10 µM [%] | pIC50
1 | CC(=O)C1C(=O)c2ccc(N(C)S(=O)(=O)c3ccc4c(c3)C(=O)C(C(C)=O)C4=O)cc2C1=O (stereo not shown) [Example 314, -acetyl-N-(2-acetyl-1,3-dioxo-2,3-dihydro-1H-inden-5-yl)-N-methyl-1,3-dioxo-2,3-dihydro-1H-indene-5-sulfonamide] | 9 | 28 | – | – | –
2 | O=C(c1ccc2c(c1)C(=O)C(C(=O)NC1CCOCC1)C2=O)c1ccc2c(c1)C(=O)C(C(=O)NC1CCOCC1)C2=O (stereo not shown) [Example 72, 5,5′-carbonylbis(1,3-dioxo-n-(tetrahydro-2h-pyran-4-yl)-2,3-dihydro-1h-indene-2-carboxamide)] | – | – | 43 | 52 | –
3 | CC(C)(C)OC(=O)N[C@@H](C(=O)C1C(=O)c2ccc(S(=O)(=O)c3ccc4c(c3)C(=O)C(C(=O)[C@H](NC(=O)OC(C)(C)C)c3ccccc3)C4=O)cc2C1=O)c1ccccc1 (stereo partly shown) [Example 182] | – | – | 74 | 88 | 5.24
4 | CSCC[C@H](NC(=O)OC(C)(C)C)C(=O)C1C(=O)c2ccc(C(=O)c3ccc4c(c3)C(=O)C(C(=O)[C@H](CCSC)NC(=O)OC(C)(C)C)C4=O)cc2C1=O (stereo partly drawn) [Example 271, tert-butyl N-[(2S)-1-(5-{2-[(2S)-2-{[(tert-butoxy)carbonyl]amino}-4-(methylsulfanyl)butanoyl]-1,3-dioxo-2,3-dihydro-1H-indene-5-carbonyl}-1,3-dioxo-2,3-dihydro-1H-inden-2-yl)-4-(methylsulfanyl)-1-oxobutan-2-yl]carbamate] | 21 | 38 | – | – | –
5 | O=C(Cn1cccn1)C1C(=O)c2ccc(S(=O)(=O)c3ccc4c(c3)C(=O)C(C(=O)Cn3cccn3)C4=O)cc2C1=O (stereo not shown) [Example 139, 5-({1,3-dioxo-2-[2-(1H-pyrazol-1-yl)acetyl]-2,3-dihydro-1H-inden-5-yl}sulfonyl)-2-[2-(1H-pyrazol-1-yl)acetyl]-2,3-dihydro-1H-indene-1,3-dione] | – | – | 87 | 97 | 5.15
6 | N[C@@H](C(=O)C1C(=O)c2ccc(S(=O)(=O)c3ccc4c(c3)C(=O)C(C(=O)[C@H](N)c3ccccc3)C4=O)cc2C1=O)c1ccccc1 (stereo partly drawn) [Example 172, 2-[(2R)-2-amino-2-phenylacetyl]-5-({2-[(2R)-2-amino-2-phenylacetyl]-1,3-dioxo-2,3-dihydro-1H-inden-5-yl}sulfonyl)-2,3-dihydro-1H-indene-1,3-dione] | – | – | 81 | 93 | 5.80
7 | CC(C)CCCC(=O)C1C(=O)c2ccc(S(=O)(=O)c3ccc4c(c3)C(=O)C(C(=O)CCCC(C)C)C4=O)cc2C1=O (stereo not shown) [Example 171, 2-(5-methylhexanoyl)-5-{[2-(5-methylhexanoyl)-1,3-dioxo-2,3-dihydro-1H-inden-5-yl]sulfonyl}-2,3-dihydro-1H-indene-1,3-dione] | – | – | 62 | 75 | –
8 | O=C(O)CCC(=O)C1C(=O)c2ccc(Oc3ccc4c(c3)C(=O)C(C(=O)CCC(=O)O)C4=O)cc2C1=O (stereo not shown) [Example 245, 4-(5-{[2-(3-carboxypropanoyl)-1,3-dioxo-2,3-dihydro-1H-inden-5-yl]oxy}-1,3-dioxo-2,3-dihydro-1H-inden-2-yl)-4-oxobutanoic acid] | 27 | 47 | – | – | –
9 | CCC(=O)C1C(=O)c2ccc(Oc3ccc4c(c3)C(=O)C(C(=O)CC)C4=O)cc2C1=O (stereo not shown) [Example 323, 5-[(1,3-dioxo-2-propanoyl-2,3-dihydro-1H-inden-5-yl)oxy]-2-propanoyl-2,3-dihydro-1H-indene-1,3-dione] | 7 | 18 | – | – | –
10 | O=C1c2ccc(Oc3ccc4c(c3)C(=O)C(C(=O)C3CCCCC3)C4=O)cc2C(=O)C1C(=O)C1CCCCC1 (stereo not shown) [Example 286, 2-cyclohexanecarbonyl-5-[(2-cyclohexanecarbonyl-1,3-dioxo-2,3-dihydro-1H-inden-5-yl)oxy]-2,3-dihydro-1H-indene-1,3-dione] | 37 | 47 | – | – | 5.52
11 | CC(C)(C)OC(=O)NCCCC(=O)C1C(=O)c2ccc(Oc3ccc4c(c3)C(=O)C(C(=O)CCCNC(=O)OC(C)(C)C)C4=O)cc2C1=O (stereo not shown) [Example 385, tert-butyl N-[4-(5-{[2-(4-{[(tert-butoxy)carbonyl]amino}butanoyl)-1,3-dioxo-2,3-dihydro-1H-inden-5-yl]oxy}-1,3-dioxo-2,3-dihydro-1H-inden-2-yl)-4-oxobutyl]carbamate] | 29 | 59 | – | – | –
12 | COCCOCCNCC(=O)C1C(=O)c2ccc(Oc3ccc4c(c3)C(=O)C(C(=O)CNCCOCCOC)C4=O)cc2C1=O (stereo not shown) [Example 394, 2-(2-{[2-(2-methoxyethoxy)ethyl]amino}acetyl)-5-{[2-(2-{[2-(2-methoxyethoxy)ethyl]amino}acetyl)-1,3-dioxo-2,3-dihydro-1H-inden-5-yl]oxy}-2,3-dihydro-1H-indene-1,3-dione] | 2 | 5 | – | – | –
13 | COCC(=O)C1C(=O)c2ccc(C(=O)c3ccc4c(c3)C(=O)C(C(=O)COC)C4=O)cc2C1=O (stereo not shown) [Example 234, 2-(2-methoxyacetyl)-5-[2-(2-methoxyacetyl)-1,3-dioxo-2,3-dihydro-1H-indene-5-carbonyl]-2,3-dihydro-1H-indene-1,3-dione] | 21 | 72 | – | – | 5.82
14 | CC(C)(C)OC(=O)N1C[C@H](F)C[C@H]1C(=O)C1C(=O)c2ccc(C(=O)c3ccc4c(c3)C(=O)C(C(=O)[C@@H]3C[C@@H](F)CN3C(=O)OC(C)(C)C)C4=O)cc2C1=O (stereo partly drawn) [Example 113, tert-butyl (2S,4R)-2-(5-{2-[(2S,4R)-1-[(tert-butoxy)carbonyl]-4-fluoropyrrolidine-2-carbonyl]-1,3-dioxo-2,3-dihydro-1H-indene-5-carbonyl}-1,3-dioxo-2,3-dihydro-1H-indene-2-carbonyl)-4-fluoropyrrolidine-1-carboxylate] | – | – | 68 | 86 | 5.27
15 | COCCOCC(=O)C1C(=O)c2ccc(C(=O)c3ccc4c(c3)C(=O)C(C(=O)COCCOC)C4=O)cc2C1=O (stereo not shown) [Example 395, 2-[2-(2-methoxyethoxy)acetyl]-5-{2-[2-(2-methoxyethoxy)acetyl]-1,3-dioxo-2,3-dihydro-1H-indene-5-carbonyl}-2,3-dihydro-1H-indene-1,3-dione] | 2 | 13 | – | – | –
16 | CSCCC(=O)C1C(=O)c2ccc(S(=O)(=O)c3ccc4c(c3)C(=O)C(C(=O)CCSC)C4=O)cc2C1=O (stereo not shown) [Example 278, 2-[3-(methylsulfanyl)propanoyl]-5-({2-[3-(methylsulfanyl)propanoyl]-1,3-dioxo-2,3-dihydro-1H-inden-5-yl}sulfonyl)-2,3-dihydro-1H-indene-1,3-dione] | 1 | 18 | – | – | 5.52
17 | CC(C)(C)OC(=O)N1CSC[C@@H]1C(=O)C1C(=O)c2ccc(S(=O)(=O)c3ccc4c(c3)C(=O)C(C(=O)[C@H]3CSCN3C(=O)OC(C)(C)C)C4=O)cc2C1=O (stereo partly drawn) [Example 221, tert-butyl (4S)-4-[5-({2-[(4S)-3-[(tert-butoxy)carbonyl]-1,3-thiazolidine-4-carbonyl]-1,3-dioxo-2,3-dihydro-1H-inden-5-yl}sulfonyl)-1,3-dioxo-2,3-dihydro-1H-indene-2-carbonyl]-1,3-thiazolidine-3-carboxylate] | – | – | 92 | 97 | 5.64
18 | CC(C)[C@@H](N)C(=O)C1C(=O)c2ccc(S(=O)(=O)c3ccc4c(c3)C(=O)C(C(=O)[C@H](N)C(C)C)C4=O)cc2C1=O (stereo partly drawn) [Example 353, 2-[(2R)-2-amino-3-methylbutanoyl]-5-({2-[(2R)-2-amino-3-methylbutanoyl]-1,3-dioxo-2,3-dihydro-1H-inden-5-yl}sulfonyl)-2,3-dihydro-1H-indene-1,3-dione] | 22 | 37 | – | – | –
19 | CC(C)(C)OC(=O)N1CC[C@H](C(=O)C2C(=O)c3ccc(S(=O)(=O)c4ccc5c(c4)C(=O)C(C(=O)[C@H]4CCN(C(=O)OC(C)(C)C)C4)C5=O)cc3C2=O)C1 (stereo partly drawn) [Example 374, tert-butyl (3S)-3-[5-({2-[(3S)-1-[(tert-butoxy)carbonyl]pyrrolidine-3-carbonyl]-1,3-dioxo-2,3-dihydro-1H-inden-5-yl}sulfonyl)-1,3-dioxo-2,3-dihydro-1H-indene-2-carbonyl]pyrrolidine-1-carboxylate] | 22 | 49 | – | – | –
20 | CC1(C)O[C@H]2O[C@@H](/C(O)=C3\C(=O)c4ccc(C(=O)c5ccc6c(c5)C(=O)/C(=C(\O)[C@@H]5O[C@@H]7OC(C)(C)O[C@@H]7[C@H]7OC(C)(C)O[C@@H]75)C6=O)cc4C3=O)[C@H]3OC(C)(C)O[C@@H]3[C@H]2O1 [Example 135, 5-{1,3-dioxo-2-[(1S,2R,6R,8R,9S)-4,4,11,11-tetramethyl-3,5,7,10,12-pentaoxatricyclo[7.3.0.0^2,^6]dodecane-8-carbonyl]-2,3-dihydro-1H-indene-5-carbonyl}-2-[(1S,2R,6R,8R,9S)-4,4,11,11-tetramethyl-3,5,7,10,12-pentaoxatricyclo[7.3.0.0^2,^6]dodecane-8-carbonyl]-2,3-dihydro-1H-indene-1,3-dione] | – | – | 79 | 88 | 5.42

— patent US20250281424A1 (New York Blood Center, Inc, priority 2020, published 2025)
